Source: US5804553A, “Prophenins - antibiotic peptides” (University of California, priority 1994, dated 1998)
Where no end group is shown, it is not given here.

How the values were obtained:
[1] = system: lipid polysaccharide (LPS) of the Gram-negative bacterium E. coli strain 0.55B5; test: Limulus amebocyte lysate (LAL) test for endotoxin binding; format: biochemical; design: key to LAL gel formation: ++ signifies a solid gel (no inhibition); + indicates increased viscosity without solid gel formation (partial inhibition); 0 indicates that gelation was absent (complete inhibition); details: for concentration giving complete inhibition of LAL gelation / LAL gel formation: LPS 0.05 endotoxin unit/ml; for LAL gel formation: Table 3; for concentration giving complete inhibition of LAL gelation, molar: converted from μg/ml
Procedure: The prophenins of the invention were tested for their ability to bind the lipid polysaccharide (LPS) of the Gram-negative bacterium E. coli strain 0.55B5. The assay was the Limulus amebocyte lysate (LAL) test for endotoxins conducted in the presence and absence of the test compounds. The test was conducted using the procedure described in Sigma Technical Bulletin No. 210 as revised in December 1992 and published by Sigma Chemical Company, St. Louis, Mo.
The LAL test is based on the ability of LPS to effect gelation in the commercial reagent E-TOXATE ™ which is prepared from the lysate of circulating amebocytes of the Horseshoe Crab Limulus polyphemus. As described in the technical bulletin, when exposed to minute quantities of LPS, the lysate increases in opacity as well as viscosity and may gel or clot depending on the concentration of endotoxin. The technical bulletin goes on to speculate that the mechanism appears analogous to the clotting of mammalian blood and involves the steps of activation of a trypsin-like preclotting enzymes by the LPS in the presence of calcium ion, followed by enzymic modifications of a "coagulogen" by proteolysis to produce a clottable protein. These steps are believed tied to the biologically active or "pyrogenic" portion of the molecule. It has been shown previously that detoxified LPS (or endotoxin) gives a negative LAL test.
Polymyxin B is a cyclic 1.2 kD acylated […] obtained from Bacillus polymyxa. Polymyxin B was used as a positive control since it is known to inhibit LPS-induced Limulus hemocyte lysate clotting.
In the assay, the amounts of prophenin-1 and polymyxin B (78% free polymyxin, Sigma) were preincubated in a final volume of 0.2 ml and the test mixtures contained LPS at a final concentration of 0.05 endotoxin unit/ml and E-TOXATE™ at the same concentration. The test compounds were incubated together with the LPS for 15 minutes before the E-TOXATE™ was added to a final volume (after E-TOXATE™ addition) of 0.2 ml. The tubes were then incubated for 60 minutes at 37° C. and examined for the formation of a gel.

C. albicans, strain 820 = test: radial diffusion assay in agarose gels; format: cell-based; details: for minimal microbicidal concentration: Table 2; for inhibitory activity (FIG. 4c): at reasonable concentrations
Procedure: (§1) Aliquots (66 μl) of each fraction were dried by vacuum centrifugation, and resuspended in approximately 6.6 μl of 0.01% acetic acid. Five μl samples of this concentrate were tested for antimicrobial activity against E. coli ML-35, L. monocytogenes, Strain EGD and C. albicans, strain 820 by radial diffusion and gel overlay techniques (Lehrer, R. I. et al. J Immunol Meth (1991) 137:167-173). Active fractions were further examined by acid-urea PAGE and SDS-PAGE. Prophenins emerged from the P10 column in fractions 38-43 (39.6 ml total volume), which contained a total of 18 mg protein by BCA analysis.
(§2) The radial diffusion assay in agarose gels as described above was also used to test the activity of the purified prophenins. Samples of 5 μL each were added to 3 mm wells in thin gels composed of 10 mM sodium phosphate, 30 mg/ml trypticase soy broth powder in 1% agarose and containing approximately 4×10^5 CFU/ml of mid-log phase organisms. After allowing 3 hours for the samples to diffuse into the underlayer gel, a nutrient-rich overlay gel was poured and the plates were incubated for 24 hours at 37° C. to allow surviving organisms to form microcolonies. The diameters of the clear zones were measured and expressed in "units" (10 units=1 mm) as. described previously.

E. coli ML-35 = test: radial diffusion assay in agarose gels; format: cell-based; details: for inhibitory activity (FIG. 4a): E. coli ML-35; for minimal microbicidal concentration: E. coli, Table 2
Procedure: as §1, §2

[2] = system: L. monocytogenes, Strain EGD; test: radial diffusion assay in agarose gels; format: cell-based; details: for minimal microbicidal concentration: Table 2
Procedure: as §1, §2

Row | Molecule | concentration giving complete inhibition of LAL gelation [1] [µg/mL] | LAL gel formation ([1]; peptide 0.16 μg/ml) | LAL gel formation ([1]; peptide 0.31 μg/ml) | LAL gel formation ([1]; peptide 0.63 μg/ml) | LAL gel formation ([1]; peptide 1.25 μg/ml) | LAL gel formation ([1]; peptide 2.5 μg/ml) | LAL gel formation ([1]; peptide 5.0 μg/ml) | LAL gel formation ([1]; peptide 10.0 μg/ml) | concentration giving complete inhibition of LAL gelation, molar [1] | minimal microbicidal concentration (C. albicans, strain 820) [µg/mL] | inhibitory activity (FIG. 4c) (C. albicans, strain 820) | inhibitory activity (FIG. 4a) (E. coli ML-35) | minimal microbicidal concentration (E. coli ML-35) [µg/mL] | minimal microbicidal concentration [2] [µg/mL] | specificity for Gram-negative bacteria (E. coli ML-35; from Table 2, E. coli versus L. monocytogenes and C. albicans) | concentrations at which some activity was shown (FIG. 4b) [2] | inhibitory activity (FIG. 4b) ([2]; versus the other three antibiotic peptides) | effective concentration in inhibiting LPS ([1]; intact molecule) [nM]
1 | Polymyxin B | 5 | ++ | ++ | ++ | ++ | + | 0 | 0 | ≈ 4.2 μM |  |  |  |  |  |  |  |  | 
2 | PG-3: protegrin-3 (PG3), used as control (RGGGLCYCRRRFCVCVGR; ends and bridges not checked; cysteine pairing not given here; UniProt P32196 131-148, looked up) |  |  |  |  |  |  |  |  |  | 6.9 | successful antifungals | more inhibitory than HNP-1 | 8.6 | 9.0 |  |  |  | 
3 | HNP-1: human defensin (HNP-1), used as control |  |  |  |  |  |  |  |  |  |  | substantially noninhibitory |  |  |  |  |  |  | 
4 | HNP-2: control peptide as headed in Table 2; the text names human defensin HNP-1 (CYCRIPACIAGERRYGTCIYQGRLWAFCC; ends and bridges not checked; cysteine pairing not given here; UniProt P59665 66-94, looked up) |  |  |  |  |  |  |  |  |  | > 150 |  |  | 80.0 | 12.0 |  |  |  | 
5 | Prophenin-1: 79-residue proline-rich antimicrobial peptide purified from porcine leukocytes; sequence SEQ ID NO:1 (b87-b94, FIG. 3) (peptide) AFPPPNVPGPRFPPPNFPGPRFPPPNFPGPRFPPPNFPGPRFPPPNFPGPPFPPPIFPGPWFPPPPPFRPPPFGPPRFP | 0.625 | ++ | ++ | 0 | 0 | 0 | 0 |  | ≈ 72 nM | > 150 | substantially noninhibitory | comparable in inhibitory activity to PG3 and NP1 | 15.2 | 122.2 | highly specific for Gram-negative bacteria | above 100 μg/ml | substantially less inhibitory | 35 to 70
